In the assay the test system is P388 leukemia ip, CD2F1 mice, survival T/C. The assay can be described thus: NCI In Vivo Anticancer Drug Screen. Data for tumor model P388 Leukemia (intraperitoneal) in CD2F1 (CDF1) mice. The settings on record: endpoint: median survival time, higher = longer survival. The method in brief:
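Mice carrying the transplanted tumor received test compound or vehicle. Survival was recorded in each group, and the value is the treated-group measurement divided by that of the vehicle-treated control group.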

The mark [1] stands for this setting: dose: 50.0 mg/kg/injection, schedule: Q01DX009 (ip), vehicle: saline.
[2] abbreviates: dose: 100.0 mg/kg/injection, schedule: Q01DX009 (ip), vehicle: saline.
[3] abbreviates: dose: 200.0 mg/kg/injection, schedule: Q01DX009 (ip), vehicle: saline.
Setting [4] is: dose: 60.0 mg/kg/injection, schedule: Q01DX005 (ip), vehicle: saline with Tween-80.
Setting [5] is: dose: 120.0 mg/kg/injection, schedule: Q01DX005 (ip), vehicle: saline with Tween-80.
Where [6] appears, read: dose: 240.0 mg/kg/injection, schedule: Q01DX005 (ip), vehicle: saline with Tween-80.
The mark [7] stands for this setting: dose: 100.0 mg/kg/injection, schedule: Q04DX002 (ip), vehicle: saline with Tween-80.
Where [8] appears, read: dose: 12.5 mg/kg/injection, schedule: Q01DX009 (ip), vehicle: Klucel (hydroxypropylcellulose) (HPC).
The mark [9] stands for this setting: dose: 25.0 mg/kg/injection, schedule: Q01DX009 (ip), vehicle: Klucel (hydroxypropylcellulose) (HPC).
Where [10] appears, read: dose: 50.0 mg/kg/injection, schedule: Q01DX009 (ip), vehicle: Klucel (hydroxypropylcellulose) (HPC).
Where [11] appears, read: dose: 100.0 mg/kg/injection, schedule: Q01DX009 (ip), vehicle: Klucel (hydroxypropylcellulose) (HPC).
Setting [12] is: dose: 12.5 mg/kg/injection, schedule: Q04DX002 (ip), vehicle: saline with Tween-80.
Where [13] appears, read: dose: 25.0 mg/kg/injection, schedule: Q04DX002 (ip), vehicle: saline with Tween-80.
[14] abbreviates: dose: 50.0 mg/kg/injection, schedule: Q04DX002 (ip), vehicle: saline with Tween-80.
The mark [15] stands for this setting: dose: 200.0 mg/kg/injection, schedule: Q04DX002 (ip), vehicle: saline with Tween-80.
Where [16] appears, read: dose: 12.5 mg/kg/injection, schedule: Q01DX005 (ip), vehicle: saline.
The mark [17] stands for this setting: dose: 25.0 mg/kg/injection, schedule: Q01DX005 (ip), vehicle: saline.

Each structure is given as a SMILES string. “And” between values parts separate entries of the source, which are not always exact repeats. Identical values can stand only once. Inconclusive results and toxic doses are left out.

In the case of `CNC(=S)N(C)C`, the T/C under setting [1] is 98 % of control, the T/C under setting [2] was 99 % of control and the T/C under setting [3] is 109 % of control.

On to `Cn1ccn(C)c1=S`, for which the T/C was 107 % of control under setting [1], 97 % of control under setting [2] and 101 % of control under setting [3].

As to `CCOC(=O)C1=C(Nc2ccc(Cl)cc2)C(=O)N(C(C)(C)C)C1`, the T/C reads like this: under setting [4], 111 % of control; under setting [5], 108 % of control; under setting [6], 109 % of control.

For `CCC(C)N=Cc1ccco1` (stereo unspecified), the T/C was 101 % of control (dose: 25.0 mg/kg/injection, schedule: Q01DX005 (ip), vehicle: Klucel (hydroxypropylcellulose) (HPC)); 104 % of control (dose: 50.0 mg/kg/injection, schedule: Q01DX005 (ip), vehicle: Klucel (hydroxypropylcellulose) (HPC)); 90 % of control (dose: 100.0 mg/kg/injection, schedule: Q01DX005 (ip), vehicle: Klucel (hydroxypropylcellulose) (HPC)); 99 % of control (dose: 200.0 mg/kg/injection, schedule: Q01DX005 (ip), vehicle: Klucel (hydroxypropylcellulose) (HPC)).

`COC1=C(C)C(=O)c2[nH]ccc2C1=O`: the T/C under setting [7] is 102 % of control.

As to `O=C(CCc1ccc(O)cc1)c1c(O)cc(O)cc1O`, the T/C was 107 % of control (dose: 50.0 mg/kg/injection, schedule: Q01DX005 (ip), vehicle: saline with Tween-80); 112 % of control (dose: 50.0 mg/kg/injection, schedule: Q01DX009 (ip), vehicle: saline + alcohol); 108 % of control (dose: 100.0 mg/kg/injection, schedule: Q01DX005 (ip), vehicle: saline with Tween-80); 117 % of control (dose: 100.0 mg/kg/injection, schedule: Q01DX009 (ip), vehicle: saline + alcohol); 114 % of control (dose: 200.0 mg/kg/injection, schedule: Q01DX005 (ip), vehicle: saline with Tween-80); 108 % of control (dose: 200.0 mg/kg/injection, schedule: Q01DX009 (ip), vehicle: saline + alcohol). The T/C (dose: 400.0 mg/kg/injection, schedule: Q01DX005 (ip), vehicle: saline with Tween-80) is 114 % of control.

With `O=NN(CCS(=O)CCCl)C(=O)NC1CCCCC1` (stereo unspecified), the T/C is, setting by setting: (dose: 3.13 mg/kg/injection, schedule: Q01DX009 (ip), vehicle: water) 102 % of control; (dose: 6.25 mg/kg/injection, schedule: Q01DX009 (ip), vehicle: water) 110 % of control; (dose: 12.5 mg/kg/injection, schedule: Q01DX009 (ip), vehicle: water) 111 % of control; (dose: 25.0 mg/kg/injection, schedule: Q01DX009 (ip), vehicle: water) 124 % of control; (dose: 100.0 mg/kg/injection, schedule: Q01DX009 (ip), vehicle: water) 159 % of control.

On to `CCOC(=O)Nc1nc2ccc(SC#N)cc2s1`, for which the T/C (dose: 6.25 mg/kg/injection, schedule: Q01DX009 (ip), vehicle: Klucel (hydroxypropylcellulose) (HPC)) is 107 % of control; the T/C under setting [8] is 107 % of control; the T/C under setting [9] is 96 % of control.

Regarding `Cc1ccccc1N1C(=O)[N+](C)(C)N=C1[O-]`, the T/C is 109 % of control and 113 % of control (dose: 100.0 mg/kg/injection, schedule: Q04DX003 (ip), vehicle: saline); 99 % of control and 113 % of control (dose: 200.0 mg/kg/injection, schedule: Q04DX003 (ip), vehicle: saline); 91 % of control (dose: 400.0 mg/kg/injection, schedule: Q04DX003 (ip), vehicle: saline).

Regarding `OCCCCc1nccc2c1[nH]c1ccccc12`, the T/C reads like this: under setting [8], 106 % of control; under setting [9], 106 % of control; under setting [10], 104 % of control; under setting [11], 95 % of control.

For the molecule `O=C1NC(N(CCCl)CCCl)=NC1(c1ccccc1)c1ccccc1`, the T/C was 97 % of control under setting [12]; 94 % of control under setting [13]; 94 % of control under setting [14]; 106 % of control under setting [7]; 96 % of control under setting [15].

Turning to `N=C(N)c1ccc(OCCCOc2ccc(C(=N)N)cc2)cc1`, the T/C was 108 % of control (dose: 6.25 mg/kg/injection, schedule: Q01DX005 (ip), vehicle: saline); 117 % of control under setting [16]; 115 % of control under setting [17].

Consider `COc1cccc(C)c1C(O)CC1CCCN1` (stereo unspecified), for which the T/C under setting [10] was 106 % of control and the T/C under setting [11] was 102 % of control.

In the case of `C=CC(Br)CCCBr` (stereo unspecified), the T/C is, setting by setting: under setting [12], 106 % of control; under setting [13], 112 % of control; under setting [14], 101 % of control; under setting [7], 104 % of control.

As for `COc1ccc(C2Cc3cc(OC)c(OC)cc3C(c3ccc(OC)c(OC)c3)N2)cc1OC` (stereo unspecified), the T/C runs as follows: under setting [4], 97 % of control; under setting [5], 88 % of control; under setting [6], 89 % of control.

`O=C1CCCCCCCCCCCCCCO1`: the T/C is 97 % of control under setting [10]; 106 % of control under setting [11]; 102 % of control (dose: 200.0 mg/kg/injection, schedule: Q01DX009 (ip), vehicle: Klucel (hydroxypropylcellulose) (HPC)); 106 % of control (dose: 400.0 mg/kg/injection, schedule: Q01DX009 (ip), vehicle: Klucel (hydroxypropylcellulose) (HPC)).

Consider `CCC(C)B1N(c2ccccc2)N=NN1C(C)(C)C` (stereo unspecified), for which the T/C was 97 % of control under setting [4], 97 % of control under setting [5] and 105 % of control under setting [6].

Consider `O=c1c(/C=C\Nc2ccccc2)c(-c2ccccc2)c1=O`, for which the T/C runs as follows: (dose: 100.0 mg/kg/injection, schedule: Q01DX001 (ip), vehicle: saline with Tween-80) 100 % of control; (dose: 200.0 mg/kg/injection, schedule: Q01DX001 (ip), vehicle: saline with Tween-80) 92 % of control; (dose: 400.0 mg/kg/injection, schedule: Q01DX001 (ip), vehicle: saline with Tween-80) 92 % of control.

On to `CC1(C)CC(OP(=O)(OCCN2CC2)OCCN2CC2)CC(C)(C)N1O`, for which the T/C is 107 % of control (dose: 50.0 mg/kg/injection, schedule: Q01DX009 (ip), vehicle: saline with Tween-80); 100 % of control (dose: 100.0 mg/kg/injection, schedule: Q01DX009 (ip), vehicle: saline with Tween-80); 96 % of control (dose: 200.0 mg/kg/injection, schedule: Q01DX009 (ip), vehicle: saline with Tween-80).

In the case of `C=COC(=O)C(Cc1cc(OC)c(OC)c(OC)c1)NC(=O)OCc1ccccc1` (stereo unspecified), the T/C was 102 % of control under setting [7]; 101 % of control under setting [15]; 96 % of control (dose: 400.0 mg/kg/injection, schedule: Q04DX002 (ip), vehicle: saline with Tween-80).

Consider `C(=N/OC(c1ccccc1)(c1ccccc1)c1ccccc1)/c1ccccc1`, for which the T/C runs as follows: (dose: 25.0 mg/kg/injection, schedule: Q04DX003 (ip), vehicle: saline) 104 % of control; (dose: 75.0 mg/kg/injection, schedule: Q04DX003 (ip), vehicle: saline) 100 % of control; (dose: 150.0 mg/kg/injection, schedule: Q04DX003 (ip), vehicle: saline) 95 % of control.

In the case of `COc1nc(N)c2ncn(C3CCCO3)c2n1` (stereo unspecified), the T/C (dose: 12.5 mg/kg/injection, schedule: Q01DX001 (ip), vehicle: Klucel (hydroxypropylcellulose) (HPC)) was 100 % of control and the T/C (dose: 25.0 mg/kg/injection, schedule: Q01DX001 (ip), vehicle: Klucel (hydroxypropylcellulose) (HPC)) was 106 % of control.

Consider `CCN(CC)CCCCCCCCOC(=O)c1cc(OC)c(OC)c(OC)c1`, for which the T/C reads like this: under setting [16], 101 % of control; under setting [17], 97 % of control; (dose: 50.0 mg/kg/injection, schedule: Q01DX005 (ip), vehicle: saline) 96 % of control; (dose: 60.0 mg/kg/injection, schedule: Q01DX005 (ip), vehicle: saline) 99 % of control.

Consider `C=CCC(NC(C)=O)C(=O)O` (stereo unspecified), for which the T/C is 88 % of control (dose: 25.0 mg/kg/injection, schedule: Q01DX009 (ip), vehicle: saline); 101 % of control under setting [1]; 93 % of control under setting [2].

These data come from PubChem BioAssay AID330 (DTP/NCI, 2004).
